Laboratory results as given in PubChem BioAssay (NCI).
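These data come from cells grown in 96-well plates and exposed to compound for 48 hours at five concentrations. Here, GI50 denotes the concentration required for 50% inhibition of growth. TGI: concentration producing complete growth inhibition.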

system: HOP-62 NSCLC; test: inhibition of tumour cell growth, NCI panel, 48 h

Row | Compound | GI50 [µM] | TGI [µM]
1 | CCCCCN(CCCCC)CC(O)c1ccc(Cl)c2ccccc12 (stereo not given) | 13.1 | 26.5
2 | CC(=O)Nc1ccc2[nH]c(C(=O)N3CC(CCl)c4c3cc(N)c3ccccc43)cc2c1 (stereo not given) |  | < 0.0262
3 | Cc1ccc(NC(=O)c2sc3nc(C)c(C(O)c4ccccc4)cc3c2N)cc1 (stereo not given) | 0.716 | 23.6

system: HOP-92 NSCLC; test: inhibition of tumour cell growth, NCI panel, 48 h

Row | Compound | GI50 [nM] | TGI [µM]
4 | O=C(/C(=C/c1cccc([N+](=O)[O-])c1)c1ccccc1)c1ccccc1 | 1970 | 6.95
5 | CCCCCN(CCCCC)CC(O)c1ccc(Cl)c2ccccc12 (stereo not given) | 974 | 14
6 | Cc1ccc(NC(=O)c2sc3nc(C)c(C(O)c4ccccc4)cc3c2N)cc1 (stereo not given) | 857 | 20.4

system: HS 578T breast; test: inhibition of tumour cell growth, NCI panel, 48 h

Row | Compound | GI50 [µM] | TGI [µM]
7 | O=C(/C(=C/c1cccc([N+](=O)[O-])c1)c1ccccc1)c1ccccc1 | 3.89 | > 100
8 | CCCCCN(CCCCC)CC(O)c1ccc(Cl)c2ccccc12 (stereo not given) | 10.8 | 33.9
9 | CC(=O)Nc1ccc2[nH]c(C(=O)N3CC(CCl)c4c3cc(N)c3ccccc43)cc2c1 (stereo not given) |  | < 0.01
10 | Cc1ccc(NC(=O)c2sc3nc(C)c(C(O)c4ccccc4)cc3c2N)cc1 (stereo not given) | 0.327 | 10.3

system: HT29 colon; test: inhibition of tumour cell growth, NCI panel, 48 h

Row | Compound | GI50 [nM] | TGI [µM]
11 | O=C(/C(=C/c1cccc([N+](=O)[O-])c1)c1ccccc1)c1ccccc1 | 3240 | 8.83
12 | CCCCCN(CCCCC)CC(O)c1ccc(Cl)c2ccccc12 (stereo not given) | 2240 | 20.6
13 | CC(=O)Nc1ccc2[nH]c(C(=O)N3CC(CCl)c4c3cc(N)c3ccccc43)cc2c1 (stereo not given) |  | < 0.0309
14 | Cc1ccc(NC(=O)c2sc3nc(C)c(C(O)c4ccccc4)cc3c2N)cc1 (stereo not given) | 358 | 14.8

system: IGROV1 ovarian; test: inhibition of tumour cell growth, NCI panel, 48 h

Row | Compound | GI50 [µM] | TGI [µM]
15 | O=C(/C(=C/c1cccc([N+](=O)[O-])c1)c1ccccc1)c1ccccc1 | 3.38 | 27.8
16 | CCCCCN(CCCCC)CC(O)c1ccc(Cl)c2ccccc12 (stereo not given) | 4.92 | 24.3
17 | CC(=O)Nc1ccc2[nH]c(C(=O)N3CC(CCl)c4c3cc(N)c3ccccc43)cc2c1 (stereo not given) |  | > 100
18 | Cc1ccc(NC(=O)c2sc3nc(C)c(C(O)c4ccccc4)cc3c2N)cc1 (stereo not given) | 0.634 | 36.8

system: K-562 leukemia; test: inhibition of tumour cell growth, NCI panel, 48 h

Row | Compound | GI50 [µM] | TGI [µM]
19 | O=C(/C(=C/c1cccc([N+](=O)[O-])c1)c1ccccc1)c1ccccc1 | 3.27 | 15.7
20 | CCCCCN(CCCCC)CC(O)c1ccc(Cl)c2ccccc12 (stereo not given) | 4.23 | 20.8
21 | CC(=O)Nc1ccc2[nH]c(C(=O)N3CC(CCl)c4c3cc(N)c3ccccc43)cc2c1 (stereo not given) |  | > 100
22 | Cc1ccc(NC(=O)c2sc3nc(C)c(C(O)c4ccccc4)cc3c2N)cc1 (stereo not given) | 0.333 | > 100

system: KM12 colon; test: inhibition of tumour cell growth, NCI panel, 48 h

Row | Compound | GI50 [µM] | TGI [µM]
23 | O=C(/C(=C/c1cccc([N+](=O)[O-])c1)c1ccccc1)c1ccccc1 | 3.7 | 13.1
24 | CCCCCN(CCCCC)CC(O)c1ccc(Cl)c2ccccc12 (stereo not given) | 6.11 | 25
25 | CC(=O)Nc1ccc2[nH]c(C(=O)N3CC(CCl)c4c3cc(N)c3ccccc43)cc2c1 (stereo not given) |  | 3.48
26 | Cc1ccc(NC(=O)c2sc3nc(C)c(C(O)c4ccccc4)cc3c2N)cc1 (stereo not given) | 0.452 | > 61.9

system: LOX IMVI melanoma; test: inhibition of tumour cell growth, NCI panel, 48 h

Row | Compound | GI50 [nM] | TGI [µM]
27 | CCCCCN(CCCCC)CC(O)c1ccc(Cl)c2ccccc12 (stereo not given) | 3940 | 16.4
28 | CC(=O)Nc1ccc2[nH]c(C(=O)N3CC(CCl)c4c3cc(N)c3ccccc43)cc2c1 (stereo not given) |  | < 0.0255
29 | Cc1ccc(NC(=O)c2sc3nc(C)c(C(O)c4ccccc4)cc3c2N)cc1 (stereo not given) | 629 | 19

system: M14 melanoma; test: inhibition of tumour cell growth, NCI panel, 48 h

Row | Compound | GI50 [µM] | TGI [µM]
30 | O=C(/C(=C/c1cccc([N+](=O)[O-])c1)c1ccccc1)c1ccccc1 | 3.45 | 18.9
31 | CCCCCN(CCCCC)CC(O)c1ccc(Cl)c2ccccc12 (stereo not given) | 4.51 | 18.7
32 | Cc1ccc(NC(=O)c2sc3nc(C)c(C(O)c4ccccc4)cc3c2N)cc1 (stereo not given) | 0.284 | 26.1

system: MALME-3M melanoma; test: inhibition of tumour cell growth, NCI panel, 48 h

Row | Compound | GI50 [nM] | TGI [µM]
33 | O=C(/C(=C/c1cccc([N+](=O)[O-])c1)c1ccccc1)c1ccccc1 | 2320 | 5.81
34 | CCCCCN(CCCCC)CC(O)c1ccc(Cl)c2ccccc12 (stereo not given) | 15400 | 32
35 | Cc1ccc(NC(=O)c2sc3nc(C)c(C(O)c4ccccc4)cc3c2N)cc1 (stereo not given) | 476 | 53.7

system: MCF7 breast; test: inhibition of tumour cell growth, NCI panel, 48 h

Row | Compound | GI50 [µM] | TGI [µM]
36 | O=C(/C(=C/c1cccc([N+](=O)[O-])c1)c1ccccc1)c1ccccc1 | 3.34 | 13.3
37 | CCCCCN(CCCCC)CC(O)c1ccc(Cl)c2ccccc12 (stereo not given) | 6.89 | 20.5
38 | CC(=O)Nc1ccc2[nH]c(C(=O)N3CC(CCl)c4c3cc(N)c3ccccc43)cc2c1 (stereo not given) |  | 2.01
39 | Cc1ccc(NC(=O)c2sc3nc(C)c(C(O)c4ccccc4)cc3c2N)cc1 (stereo not given) | 0.368 | > 57.6

system: MDA-MB-231 breast; test: inhibition of tumour cell growth, NCI panel, 48 h

Row | Compound | GI50 [µM] | TGI [µM]
40 | O=C(/C(=C/c1cccc([N+](=O)[O-])c1)c1ccccc1)c1ccccc1 | 4.01 | > 100
41 | CCCCCN(CCCCC)CC(O)c1ccc(Cl)c2ccccc12 (stereo not given) | 10.8 | 26.4
42 | Cc1ccc(NC(=O)c2sc3nc(C)c(C(O)c4ccccc4)cc3c2N)cc1 (stereo not given) | 0.777 | 21.8

system: MDA-MB-435; test: inhibition of tumour cell growth, NCI panel, 48 h

Row | Compound | GI50 [µM] | TGI [µM]
43 | O=C(/C(=C/c1cccc([N+](=O)[O-])c1)c1ccccc1)c1ccccc1 | 1.96 | 4.43
44 | CCCCCN(CCCCC)CC(O)c1ccc(Cl)c2ccccc12 (stereo not given) | 6.43 | 45
45 | CC(=O)Nc1ccc2[nH]c(C(=O)N3CC(CCl)c4c3cc(N)c3ccccc43)cc2c1 (stereo not given) |  | 0.0767

system: MOLT-4 leukemia; test: inhibition of tumour cell growth, NCI panel, 48 h

Row | Compound | GI50 [µM] | TGI [µM]
46 | O=C(/C(=C/c1cccc([N+](=O)[O-])c1)c1ccccc1)c1ccccc1 | 3.13 | 11.6
47 | CCCCCN(CCCCC)CC(O)c1ccc(Cl)c2ccccc12 (stereo not given) | 6.69 | 24
48 | CC(=O)Nc1ccc2[nH]c(C(=O)N3CC(CCl)c4c3cc(N)c3ccccc43)cc2c1 (stereo not given) |  | < 0.0446
49 | Cc1ccc(NC(=O)c2sc3nc(C)c(C(O)c4ccccc4)cc3c2N)cc1 (stereo not given) | 0.643 | > 100

system: NCI-H226 lung; test: inhibition of tumour cell growth, NCI panel, 48 h

Row | Compound | GI50 [µM] | TGI [µM]
50 | O=C(/C(=C/c1cccc([N+](=O)[O-])c1)c1ccccc1)c1ccccc1 | 3.08 | 11.5
51 | CCCCCN(CCCCC)CC(O)c1ccc(Cl)c2ccccc12 (stereo not given) | 10 | 23.1
52 | CC(=O)Nc1ccc2[nH]c(C(=O)N3CC(CCl)c4c3cc(N)c3ccccc43)cc2c1 (stereo not given) |  | < 0.0238
53 | Cc1ccc(NC(=O)c2sc3nc(C)c(C(O)c4ccccc4)cc3c2N)cc1 (stereo not given) | 1.27 | 41.2
